Reference: patent US8846737B2, “Compound” (Sterix Limited, priority 2009, dated 2014)

Assays:
rats = settings: cited from earlier work
steroid sulphatase = target: T1, steroid sulphatase (Homo sapiens, UniProt P08842); settings: compared with EMATE; cited from earlier work
T1 sequence (P08842 22-583): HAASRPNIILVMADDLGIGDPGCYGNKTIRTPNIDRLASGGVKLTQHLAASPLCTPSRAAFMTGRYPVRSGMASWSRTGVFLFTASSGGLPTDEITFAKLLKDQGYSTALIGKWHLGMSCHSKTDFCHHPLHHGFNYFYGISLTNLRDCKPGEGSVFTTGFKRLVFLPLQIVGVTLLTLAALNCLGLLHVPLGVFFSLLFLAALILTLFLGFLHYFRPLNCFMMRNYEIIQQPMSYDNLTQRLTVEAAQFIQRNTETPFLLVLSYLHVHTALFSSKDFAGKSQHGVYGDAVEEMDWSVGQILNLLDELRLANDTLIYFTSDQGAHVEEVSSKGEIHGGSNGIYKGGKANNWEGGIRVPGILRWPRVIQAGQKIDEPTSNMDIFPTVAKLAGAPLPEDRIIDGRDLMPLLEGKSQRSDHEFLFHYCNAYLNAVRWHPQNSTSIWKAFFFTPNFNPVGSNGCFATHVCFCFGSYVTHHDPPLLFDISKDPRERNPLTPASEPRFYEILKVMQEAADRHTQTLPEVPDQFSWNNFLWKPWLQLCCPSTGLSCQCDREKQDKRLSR

Aromatase = target: T2, Aromatase (Homo sapiens, UniProt P11511); assay: Aromatase activity in JEG3 cells (Protocol 6); type: cell-based; settings: intact JEG3 cells, [1β-3H]androstenedione, 30 min
T2 construct: host or cells: JEG3 choriocarcinoma cells, intact monolayers
T2 sequence (P11511 1-503): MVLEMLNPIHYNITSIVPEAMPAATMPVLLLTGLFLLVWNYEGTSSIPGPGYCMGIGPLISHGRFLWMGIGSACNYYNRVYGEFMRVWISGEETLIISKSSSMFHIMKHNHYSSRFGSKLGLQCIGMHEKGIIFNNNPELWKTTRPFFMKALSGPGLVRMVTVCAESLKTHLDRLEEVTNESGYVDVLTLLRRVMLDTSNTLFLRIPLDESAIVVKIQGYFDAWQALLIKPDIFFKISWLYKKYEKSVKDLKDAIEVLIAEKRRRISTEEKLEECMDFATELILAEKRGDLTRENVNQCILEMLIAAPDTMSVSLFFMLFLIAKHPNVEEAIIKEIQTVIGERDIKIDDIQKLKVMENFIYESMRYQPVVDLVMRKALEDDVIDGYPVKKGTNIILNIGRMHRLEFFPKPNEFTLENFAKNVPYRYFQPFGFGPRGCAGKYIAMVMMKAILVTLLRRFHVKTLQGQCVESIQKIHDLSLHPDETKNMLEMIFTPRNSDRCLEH
Method: Assay for Determining Aromatase Activity Using JEG3 Cells
Aromatase activity is measured in JEG3 choriocarcinoma cells, obtained from the ATCC. […] During the aromatase reaction, ^3H2O is liberated which can be quantified using a liquid scintillation spectrometer. […] The number of cell nuclei per flask is determined using a Coulter Counter after treating the cell monolayers with Zaponin.
Aromatase inhibition was measured in accordance with Protocol 6.

Steroid sulphatase (STS) = target: T3, Steroid sulphatase (STS) (Homo sapiens, UniProt P08842); assay: Inhibition of steroid sulphatase activity in JEG3 cells (Protocol 1); type: cell-based; settings: intact JEG3 cells, [6,7-3H]oestrone-3-sulphate, 3-4 hours
T3 construct: host or cells: JEG3 choriocarcinoma cells, intact monolayers
T3 sequence (P08842 22-583): T1 sequence (P08842 22-583)
Method: Assay for Determining STS Activity Using Cancer Cells
Inhibition of Steroid Sulphatase Activity in JEG3 Cells
Steroid sulphatase activity is measured in vitro using intact JEG3 choriocarcinoma cells.
Cells are maintained in Minimal Essential Medium (MEM) containing 20 mM HEPES, 5% foetal bovine serum, 2 mM glutamine, non-essential amino acids and 0.075% sodium bicarbonate. Up to 30 replicate 25 cm^2 tissue culture flasks are seeded with approximately 1×10^5 cells/flask using the above medium Cells are grown to 80% confluency and the medium is changed every third day.
Intact monolayers of JEG3 cells in triplicate 25 cm^2 tissue culture flasks are washed with Earle's Balanced Salt Solution (EBSS) and incubated for 3-4 hours at 37° C. with 5 pmol (7×10^5 dpm) [6, 7-3H]oestrone-3-sulphate (specific activity 60 Ci/mmol) in serum-free MEM (2.5 ml) together with oestrone-3-sulphamate (11 concentrations: 0; 1fM; 0.01 pM; 0.1 pM, 1 pM; 0.01 nM; 0.1 nM; 0.01 mM; 0.1 mM; 1 mM). After incubation each flask is cooled and the medium (1 ml) is pipetted into separate tubes containing [14C]oestrone (7×10^3 dpm) (specific activity 97 Ci/mmol). The mixture is shaken thoroughly for 30 seconds with toluene (5 ml) Experiments have shown that >90% [14C]oestrone and <0 1% [3H]oestrone-3-sulphate is removed from the aqueous phase by this treatment A portion (2 ml) of the organic phase is removed, evaporated and the 3H and 14C content of the residue determined by scintillation spectrometry The mass of oestrone-3-sulphate hydrolysed was calculated from the 3H counts obtained (corrected for the volumes of the medium and organic phase used, and for recovery of [14C] oestrone added) and the specific activity of the substrate Each batch of experiments includes incubations of microsomes prepared from a sulphatase-positive human placenta (positive control) and flasks without cells (to assess apparent non-enzymatic hydrolysis of the substrate). The number of cell nuclei per flask is determined using a Coulter Counter after treating the cell monolayers with Zaponin One flask in each batch is used to assess cell membrane status and viability using the Trypan Blue exclusion method (Phillips, H J. (1973) In: Tissue culture and applications, [eds: Kruse, D. F. & Patterson, M. K]; pp 406-408; Academic Press, New York)
Results for steroid sulphatase activity are expressed as the mean±1S.D. of the total product (oestrone+oestradiol) formed during the incubation period (3-4 hours) calculated for […] and, for values showing statistical significance, as a percentage reduction (inhibition) over incubations containing no oestrone-3-sulphamate. Unpaired Student's t-test was used to test the statistical significance of results
Sterioid sulphatase inhibition was measured in accordance with Protocol 1

E1-STS = target: T4, E1-STS (Homo sapiens, UniProt P08842); settings: intact MCF-7 cells, at 0.1 nM; cited from earlier work
T4 construct: host or cells: intact MCF-7 cells (endogenous enzyme)
T4 sequence (P08842 22-583): T1 sequence (P08842 22-583)

| Structure (SMILES) | IC50 (Aromatase) [nM] | IC50 (Steroid sulphatase (STS)) [nM] | further results |
| --- | --- | --- | --- |
| COc1cc2c(cc1OS(N)(=O)=O)CC[C@@H]1[C@@H]2CC[C@]2(C)C(=O)CC[C@@H]12 [2-methoxyoestrone-3-O-sulphamate] |  |  | oestrogenicity (rats; rat, in vivo): devoid of oestrogenicity; potency as steroid sulphatase inhibitor (steroid sulphatase): equipotent with EMATE |
| N#Cc1ccc(N(Cc2ccc(OS(N)(=O)=O)cc2)n2cnnc2)cc1N1CCCCC1 [Compound 17] | 3.4 ± 0.2 | 43 ± 6 |  |
| N#Cc1ccc(N(Cc2ccc(OS(N)(=O)=O)cc2)n2cnnc2)cc1N1CCCCCC1 [Compound 19] | 3.2 ± 0.1 | 181 ± 8 |  |
| CN1CCN(c2cc(N(Cc3ccc(OS(N)(=O)=O)cc3)n3cnnc3)ccc2C#N)CC1 [Compound 23] | 89 ± 10.2 | 2800 ± 985 |  |
| N#Cc1ccc(N(CCC(=O)c2ccc(OS(N)(=O)=O)cc2)n2cnnc2)cc1-c1ccccc1 [Compound 29] | < 0.1 | 1150 ± 50 |  |
| N#Cc1ccc(N(Cc2ccc(OS(N)(=O)=O)cc2F)n2cnnc2)cc1-c1ccccc1 [Compound 31] | 1.43 ± 0.55 | 0.15 ± 0.03 |  |
| N#Cc1ccc(N(Cc2ccc(OS(N)(=O)=O)cc2)n2ccnc2)cc1-c1ccccc1 [Compound 32] | < 0.1 | 9.7 ± 4.2 |  |
| N#Cc1ccc(N(Cc2ccc(OS(N)(=O)=O)c(F)c2F)n2cnnc2)cc1-c1ccccc1 [Compound 34] | 0.8 ± 0.3 | 2.8 ± 0.9 |  |
| COc1ccc(-c2cc(N(Cc3c(F)cc(OS(N)(=O)=O)cc3F)n3cnnc3)ccc2C#N)cc1 [Compound 36] | < 0.1 | 0.1 |  |
| N#Cc1ccc(N(Cc2ccc(OS(N)(=O)=O)cc2)n2cnnc2)cc1CN1CCCC1 [Compound 41] | 97 ± 2.7 | 4360 ± 554 |  |
| COc1ccc(Cc2cc(N(Cc3ccc(OS(N)(=O)=O)cc3)n3cnnc3)ccc2C#N)cc1 [Compound 45] | 40.7 ± 4.5 | 292 ± 80 |  |
| N#Cc1ccc(N(Cc2c(F)cc(OS(N)(=O)=O)cc2F)n2cnnc2)cc1-c1ccc(F)cc1 [Compound 47] | 5.6 ± 0.1 | 14 ± 0.87 |  |
| N#Cc1ccc(N(Cc2ccc(OS(N)(=O)=O)cc2)n2cnnc2)cc1-c1ccncc1 [Compound 51] | 36 ± 1.7 | 198 ± 37 |  |
| N#Cc1ccc(N(Cc2ccc(OS(N)(=O)=O)cc2)n2cnnc2)cc1Oc1ccccc1 [Compound 57] | 12.5 ± 2.3 | 62 ± 13 |  |
| CC12CCC3c4ccc(OS(N)(=O)=O)cc4CCC3C1CCC2=O (centres unmarked) [EMATE, oestrone-3-sulphamate] |  |  | inhibition of E1-STS activity (E1-STS): more than 99%; oral uterotrophic activity relative to estradiol (rats; rats, oral): 100 times |
| N#Cc1ccc(N(Cc2c(F)cc(OS(N)(=O)=O)cc2F)n2cnnc2)cc1-c1ccccc1 [PMW04153, 4-(((6-Cyanobiphenyl-3-yl)(4H-1,2,4-triazol-4-yl)amino)methyl)-3,5-difluorophenyl sulfamate] | < 0.1 | 0.12 ± 0.02 |  |
